The record followed here is US10881642B2, “Autophagy enhancer and use thereof” (Industry-Academic Cooperation Foundation, Yonsei University, priority 2016, dated 2021).

The subject of this assay is HeLa cells. Kind of assay: GCaMP3-ML1 lysosomal Ca2+ release imaging. Format: cell-based. The conditions noted are these: GPN 200 μM; ionomycin 1 μM.

Peptide text beside a SMILES is read from it. * marks the point of attachment. βNA = c1ccc2cc(N*)ccc2c1

Method: HeLa cells were transfected with perilysosomal GCaMP3-ML1 calcium probe, and Ratiometric image (474 and 410 nm excitation) was obtained.
GCaMP3 Ca2+ Imaging. HeLa cells were grown on 15 mm coverslips and transfected with plasmid encoding the perilysosomal-localized ML1-GCaMP3 calcium probes.

Consider `NCC(=O)N[C@@H](Cc1ccccc1)C(=O)Nc1ccc2ccccc2c1` [GPN] (H-Gly-Phe-βNA), for which the “lysosomal Ca2+ release” value is listed as “induced lysosomal Ca2+ release”.
For the compound `C[C@H](CCC(=O)O)C[C@H](C)C[C@H](C)C(=O)/C=C(\O)[C@H](C)C[C@H](C)C/C=C/[C@@H](C)[C@@H](O)[C@@H](C)[C@@H](O)C[C@@H]1CC[C@@](C)([C@H]2CC[C@@](C)([C@@H](C)O)O2)O1` [ionomycin], the “lysosomal Ca2+ release” value is listed as “induced lysosomal Ca2+ release”.
